This passage reports Kd results from BindingDB's records for patent US11344546 (Recurium Ip Holding, 2022).

This assay has as its target Apoptosis regulator Bcl-2 (Homo sapiens, UniProt P10415). Kind of assay: Binding Assay.

Sequence of Apoptosis regulator Bcl-2 (P10415 whole entry): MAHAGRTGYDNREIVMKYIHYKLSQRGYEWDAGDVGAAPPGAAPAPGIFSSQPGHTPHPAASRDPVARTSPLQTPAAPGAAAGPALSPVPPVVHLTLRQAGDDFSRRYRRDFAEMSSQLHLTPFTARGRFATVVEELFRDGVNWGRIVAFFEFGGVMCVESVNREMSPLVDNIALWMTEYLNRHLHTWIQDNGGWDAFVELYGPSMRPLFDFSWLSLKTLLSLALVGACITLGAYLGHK
Description: Table 1: Binding to Bcl-2 proteins Bcl-2, and Bcl-XL was assessed using the Bcl2scan platform: T7 phage strains displaying BCL2 proteins were grown in parallel in 24-well blocks in an E. coli host derived from the BL21 strain. E. coli were grown to log-phase and infected with T7 phage from a frozen stock (multiplicity of infection=0.4) and incubated with shaking at 32° C. until lysis (90-150 minutes). The lysates were centrifuged (5,000×g) and filtered (0.2 μm) to remove cell debris. […] The liganded beads were blocked with excess biotin and washed with blocking buffer (SeaBlock (Pierce), 1% BSA, 0.05% Tween 20, 1 mM DTT) to remove unbound ligand and to reduce non-specific phage binding. […] Test compounds were prepared as 100× stocks in 100% DMSO. Kds were determined using an 11-point 3-fold compound dilution series with one DMSO control point. […] The compounds were then diluted directly into the assays such that the final concentration of DMSO was 0.9%. All reactions performed in polypropylene 384-well plates. Each was a final volume of 0.02 ml.

One may read the Kd as the free concentration of one partner at which half of the binding sites on the other are occupied at equilibrium, for simple one-to-one binding. Read a high Kd as lower affinity. Take `CCC12CC(C3=C(CN4CCN(c5ccc(C(=O)NS(=O)(=O)c6ccc(OCC7(F)CCOCC7)c([N+](=O)O)c6)c(Oc6cnc7[nH]ccc7c6)c5)CC4)CCC(C)(C)C3)(C1)C2` [US11344546, Example 26]: the Kd was < 10 nM.
